Biological target: T1, rL-PI-PLC (recombinant LB361 gene product; L-PI-PLC) (Leptospira interrogans, UniProt Q8EX56)
T1 construct: gene LB_361; entire LB361 gene (amplicon 384 bp) in pET42a, expressed in E. coli BL21DE3, Ni-NTA purified
Test: IP3 fluorescence polarization assay, Lineweaver-Burk plot
Format: biochemical
Conditions: pH 7.0, 37 °C, 50 mM HEPES, 100 mM KCl, 1.9 mM CaCl2, 2 mM EGTA, 0.1% sodium deoxycholate; acyl chains of PIP2 not told

T1 sequence (Q8EX56 entry or part of it): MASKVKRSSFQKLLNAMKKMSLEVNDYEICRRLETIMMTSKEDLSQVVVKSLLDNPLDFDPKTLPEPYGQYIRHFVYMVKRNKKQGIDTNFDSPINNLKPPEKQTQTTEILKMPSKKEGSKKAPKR

For PIP2, the Km was 199 µM.

From article PMC3790881, “Identification of Leptospira interrogans Phospholipase C as a Novel Virulence Factor Responsible for Intracellular Free Calcium Ion Elevation during Macrophage Death” (PLoS ONE, 2013)
